According to patent US20250115595A1, “INHIBITORS OF HYPOXIA-INDUCIBLE FACTORS” (The Johns Hopkins University, priority 2021, published 2025):

Test system: cytokine mRNAs
Assay: RT-qPCR array of mouse cytokines and chemokines in Hepa1-6 tumors
Type: in vivo
Procedure: Total RNA from Hepa1-6 tumors was analyzed using the RT2 Profiler PCR Array of Mouse Cytokines and Chemokines (Qiagen, catalog number 330231 PAMM-150ZA) according to the manufacturer's instructions.

[1] = array of 84 cytokines and chemokines

Compound: Brc1ccc2c(-c3csc(-c4c[nH]c5c(Br)cccc45)n3)c[nH]c2c1 [Compound 32-134D, 4-(6-bromo-1H-indol-3-yl)-2-(7-bromo-1H-indol-3-yl)thiazole]
- Mstn mRNA Fold Up- or Down-Regulation Test Group/Control Group (Hepa1-6 tumors, vs vehicle): −4.85
- Mstn mRNA X axis (Log2(fold change)) (Hepa1-6 tumors, vs vehicle): −2.28
- Nodal mRNA Fold Change Test Group/Control Group (Hepa1-6 tumors, vs vehicle): 0.29
- Nodal mRNA Fold Up- or Down-Regulation Test Group/Control Group (Hepa1-6 tumors, vs vehicle): −3.43
- Nodal mRNA X axis (Log2(fold change)) (Hepa1-6 tumors, vs vehicle): −1.78
- Osm mRNA Fold Change Test Group/Control Group (Hepa1-6 tumors, vs vehicle): 0.38
- Osm mRNA Fold Up- or Down-Regulation Test Group/Control Group (Hepa1-6 tumors, vs vehicle): −2.65
- Osm mRNA X axis (Log2(fold change)) (Hepa1-6 tumors, vs vehicle): −1.40
- Pf4 mRNA Fold Change Test Group/Control Group (Hepa1-6 tumors, vs vehicle): 0.68
- Pf4 mRNA Fold Up- or Down-Regulation Test Group/Control Group (Hepa1-6 tumors, vs vehicle): −1.47
- Pf4 mRNA X axis (Log2(fold change)) (Hepa1-6 tumors, vs vehicle): −0.56
- Ppbp mRNA Fold Change Test Group/Control Group (Hepa1-6 tumors, vs vehicle): 0.64
- Ppbp mRNA Fold Up- or Down-Regulation Test Group/Control Group (Hepa1-6 tumors, vs vehicle): −1.56
- Ppbp mRNA X axis (Log2(fold change)) (Hepa1-6 tumors, vs vehicle): −0.65
- Spp1 mRNA Fold Change Test Group/Control Group (Hepa1-6 tumors, vs vehicle): 1.71
- Spp1 mRNA Fold Up- or Down-Regulation Test Group/Control Group (Hepa1-6 tumors, vs vehicle): 1.71
- Spp1 mRNA X axis (Log2(fold change)) (Hepa1-6 tumors, vs vehicle): 0.77
- Tgfb2 mRNA Fold Change Test Group/Control Group (Hepa1-6 tumors, vs vehicle): 0.74
- Tgfb2 mRNA Fold Up- or Down-Regulation Test Group/Control Group (Hepa1-6 tumors, vs vehicle): −1.36
- Tgfb2 mRNA X axis (Log2(fold change)) (Hepa1-6 tumors, vs vehicle): −0.44
- Thpo mRNA Fold Change Test Group/Control Group (Hepa1-6 tumors, vs vehicle): 0.55
- Thpo mRNA Fold Up- or Down-Regulation Test Group/Control Group (Hepa1-6 tumors, vs vehicle): −1.82
- Thpo mRNA X axis (Log2(fold change)) (Hepa1-6 tumors, vs vehicle): −0.87
- Tnf mRNA Fold Change Test Group/Control Group (Hepa1-6 tumors, vs vehicle): 0.25
- Tnf mRNA Fold Up- or Down-Regulation Test Group/Control Group (Hepa1-6 tumors, vs vehicle): −4.00
- Tnf mRNA X axis (Log2(fold change)) (Hepa1-6 tumors, vs vehicle): −2.00
- Tnfrsf11b mRNA Fold Change Test Group/Control Group (Hepa1-6 tumors, vs vehicle): 0.25
- Tnfrsf11b mRNA Fold Up- or Down-Regulation Test Group/Control Group (Hepa1-6 tumors, vs vehicle): −4.07
- Tnfrsf11b mRNA X axis (Log2(fold change)) (Hepa1-6 tumors, vs vehicle): −2.02
- Tnfsf10 mRNA Fold Change Test Group/Control Group (Hepa1-6 tumors, vs vehicle): 1.02
- Tnfsf10 mRNA Fold Up- or Down-Regulation Test Group/Control Group (Hepa1-6 tumors, vs vehicle): 1.02
- Tnfsf10 mRNA X axis (Log2(fold change)) (Hepa1-6 tumors, vs vehicle): 0.03
- Tnfsf11 mRNA Fold Change Test Group/Control Group (Hepa1-6 tumors, vs vehicle): 0.38
- Tnfsf11 mRNA Fold Up- or Down-Regulation Test Group/Control Group (Hepa1-6 tumors, vs vehicle): −2.61
- Tnfsf11 mRNA X axis (Log2(fold change)) (Hepa1-6 tumors, vs vehicle): −1.39
- Tnfsf13b mRNA Fold Change Test Group/Control Group (Hepa1-6 tumors, vs vehicle): 0.88
- Tnfsf13b mRNA Fold Up- or Down-Regulation Test Group/Control Group (Hepa1-6 tumors, vs vehicle): −1.13
- Tnfsf13b mRNA X axis (Log2(fold change)) (Hepa1-6 tumors, vs vehicle): −0.18
- Vegfa mRNA Fold Change Test Group/Control Group (Hepa1-6 tumors, vs vehicle): 0.40
- Vegfa mRNA Fold Up- or Down-Regulation Test Group/Control Group (Hepa1-6 tumors, vs vehicle): −2.52
- Vegfa mRNA X axis (Log2(fold change)) (Hepa1-6 tumors, vs vehicle): −1.33
- Xcl1 mRNA Fold Change Test Group/Control Group (Hepa1-6 tumors, vs vehicle): 1.47
- Xcl1 mRNA Fold Up- or Down-Regulation Test Group/Control Group (Hepa1-6 tumors, vs vehicle): 1.47
- Xcl1 mRNA X axis (Log2(fold change)) (Hepa1-6 tumors, vs vehicle): 0.56
- lfna2 mRNA Fold Change Test Group/Control Group (Hepa1-6 tumors, vs vehicle): 0.26
- lfna2 mRNA Fold Up- or Down-Regulation Test Group/Control Group (Hepa1-6 tumors, vs vehicle): −3.85
- lfna2 mRNA X axis (Log2(fold change)) (Hepa1-6 tumors, vs vehicle): −1.95
- lfng mRNA Fold Change Test Group/Control Group (Hepa1-6 tumors, vs vehicle): 1.63
- lfng mRNA Fold Up- or Down-Regulation Test Group/Control Group (Hepa1-6 tumors, vs vehicle): 1.63
- lfng mRNA X axis (Log2(fold change)) (Hepa1-6 tumors, vs vehicle): 0.70
- ll1a mRNA Fold Change Test Group/Control Group (Hepa1-6 tumors, vs vehicle): 0.68
- ll1a mRNA Fold Up- or Down-Regulation Test Group/Control Group (Hepa1-6 tumors, vs vehicle): −1.47
- ll1a mRNA X axis (Log2(fold change)) (Hepa1-6 tumors, vs vehicle): −0.56
- ll1b mRNA Fold Change Test Group/Control Group (Hepa1-6 tumors, vs vehicle): 0.34
- ll1b mRNA Fold Up- or Down-Regulation Test Group/Control Group (Hepa1-6 tumors, vs vehicle): −2.92
- ll1b mRNA X axis (Log2(fold change)) (Hepa1-6 tumors, vs vehicle): −1.55
- ll1rn mRNA Fold Change Test Group/Control Group (Hepa1-6 tumors, vs vehicle): 0.68
- ll1rn mRNA Fold Up- or Down-Regulation Test Group/Control Group (Hepa1-6 tumors, vs vehicle): −1.47
- ll1rn mRNA X axis (Log2(fold change)) (Hepa1-6 tumors, vs vehicle): −0.56
- ll2 mRNA Fold Change Test Group/Control Group (Hepa1-6 tumors, vs vehicle): 0.30
- ll2 mRNA Fold Up- or Down-Regulation Test Group/Control Group (Hepa1-6 tumors, vs vehicle): −3.37
- ll2 mRNA X axis (Log2(fold change)) (Hepa1-6 tumors, vs vehicle): −1.75
- ll3 mRNA Fold Change Test Group/Control Group (Hepa1-6 tumors, vs vehicle): 0.36
- ll3 mRNA Fold Up- or Down-Regulation Test Group/Control Group (Hepa1-6 tumors, vs vehicle): −2.77
- ll3 mRNA X axis (Log2(fold change)) (Hepa1-6 tumors, vs vehicle): −1.47
- ll4 mRNA Fold Change Test Group/Control Group (Hepa1-6 tumors, vs vehicle): 0.34
- ll4 mRNA Fold Up- or Down-Regulation Test Group/Control Group (Hepa1-6 tumors, vs vehicle): −2.91
- ll4 mRNA X axis (Log2(fold change)) (Hepa1-6 tumors, vs vehicle): −1.54
- ll5 mRNA Fold Change Test Group/Control Group (Hepa1-6 tumors, vs vehicle): 0.42
- ll5 mRNA Fold Up- or Down-Regulation Test Group/Control Group (Hepa1-6 tumors, vs vehicle): −2.39
- ll5 mRNA X axis (Log2(fold change)) (Hepa1-6 tumors, vs vehicle): −1.26
- ll6 mRNA Fold Change Test Group/Control Group (Hepa1-6 tumors, vs vehicle): 0.34
- ll6 mRNA Fold Up- or Down-Regulation Test Group/Control Group (Hepa1-6 tumors, vs vehicle): −2.95
- ll6 mRNA X axis (Log2(fold change)) (Hepa1-6 tumors, vs vehicle): −1.56
- ll7 mRNA Fold Change Test Group/Control Group (Hepa1-6 tumors, vs vehicle): 0.97
- ll7 mRNA Fold Up- or Down-Regulation Test Group/Control Group (Hepa1-6 tumors, vs vehicle): −1.04
- ll7 mRNA X axis (Log2(fold change)) (Hepa1-6 tumors, vs vehicle): −0.05
- ll9 mRNA Fold Change Test Group/Control Group (Hepa1-6 tumors, vs vehicle): 0.27
- ll9 mRNA Fold Up- or Down-Regulation Test Group/Control Group (Hepa1-6 tumors, vs vehicle): −3.69
- ll9 mRNA X axis (Log2(fold change)) (Hepa1-6 tumors, vs vehicle): −1.88
- ll10 mRNA Fold Change Test Group/Control Group (Hepa1-6 tumors, vs vehicle): 0.23
- ll10 mRNA Fold Up- or Down-Regulation Test Group/Control Group (Hepa1-6 tumors, vs vehicle): −4.42
- ll10 mRNA X axis (Log2(fold change)) (Hepa1-6 tumors, vs vehicle): −2.14
- ll11 mRNA Fold Change Test Group/Control Group (Hepa1-6 tumors, vs vehicle): 0.24
- ll11 mRNA Fold Up- or Down-Regulation Test Group/Control Group (Hepa1-6 tumors, vs vehicle): −4.12
- ll11 mRNA X axis (Log2(fold change)) (Hepa1-6 tumors, vs vehicle): −2.04
- ll12a mRNA Fold Change Test Group/Control Group (Hepa1-6 tumors, vs vehicle): 0.48
- ll12a mRNA Fold Up- or Down-Regulation Test Group/Control Group (Hepa1-6 tumors, vs vehicle): −2.07
- ll12a mRNA X axis (Log2(fold change)) (Hepa1-6 tumors, vs vehicle): −1.05
- ll12b mRNA Fold Change Test Group/Control Group (Hepa1-6 tumors, vs vehicle): 0.29
- ll12b mRNA Fold Up- or Down-Regulation Test Group/Control Group (Hepa1-6 tumors, vs vehicle): −3.51
- ll12b mRNA X axis (Log2(fold change)) (Hepa1-6 tumors, vs vehicle): −1.81
- ll13 mRNA Fold Change Test Group/Control Group (Hepa1-6 tumors, vs vehicle): 0.32
- ll13 mRNA Fold Up- or Down-Regulation Test Group/Control Group (Hepa1-6 tumors, vs vehicle): −3.14
- ll13 mRNA X axis (Log2(fold change)) (Hepa1-6 tumors, vs vehicle): −1.65
- ll15 mRNA Fold Change Test Group/Control Group (Hepa1-6 tumors, vs vehicle): 0.84
- ll15 mRNA Fold Up- or Down-Regulation Test Group/Control Group (Hepa1-6 tumors, vs vehicle): 1.19
- ll15 mRNA X axis (Log2(fold change)) (Hepa1-6 tumors, vs vehicle): −0.25
- ll16 mRNA Fold Change Test Group/Control Group (Hepa1-6 tumors, vs vehicle): 0.53
- ll16 mRNA Fold Up- or Down-Regulation Test Group/Control Group (Hepa1-6 tumors, vs vehicle): −1.90
- ll16 mRNA X axis (Log2(fold change)) (Hepa1-6 tumors, vs vehicle): −0.93
- ll17a mRNA Fold Change Test Group/Control Group (Hepa1-6 tumors, vs vehicle): 0.33
- ll17a mRNA Fold Up- or Down-Regulation Test Group/Control Group (Hepa1-6 tumors, vs vehicle): −3.00
- ll17a mRNA X axis (Log2(fold change)) (Hepa1-6 tumors, vs vehicle): −1.59
- ll17f mRNA Fold Change Test Group/Control Group (Hepa1-6 tumors, vs vehicle): 0.75
- ll17f mRNA Fold Up- or Down-Regulation Test Group/Control Group (Hepa1-6 tumors, vs vehicle): −1.33
- ll17f mRNA X axis (Log2(fold change)) (Hepa1-6 tumors, vs vehicle): −0.41
- ll18 mRNA Fold Change Test Group/Control Group (Hepa1-6 tumors, vs vehicle): 0.89
- ll18 mRNA Fold Up- or Down-Regulation Test Group/Control Group (Hepa1-6 tumors, vs vehicle): −1.13
- ll18 mRNA X axis (Log2(fold change)) (Hepa1-6 tumors, vs vehicle): −0.17
- ll21 mRNA Fold Change Test Group/Control Group (Hepa1-6 tumors, vs vehicle): 0.29
- ll21 mRNA Fold Up- or Down-Regulation Test Group/Control Group (Hepa1-6 tumors, vs vehicle): −3.46
- ll21 mRNA X axis (Log2(fold change)) (Hepa1-6 tumors, vs vehicle): −1.79
- ll22 mRNA Fold Change Test Group/Control Group (Hepa1-6 tumors, vs vehicle): 0.37
- ll22 mRNA Fold Up- or Down-Regulation Test Group/Control Group (Hepa1-6 tumors, vs vehicle): −2.67
- ll22 mRNA X axis (Log2(fold change)) (Hepa1-6 tumors, vs vehicle): −1.42
- ll23a mRNA Fold Change Test Group/Control Group (Hepa1-6 tumors, vs vehicle): 0.44
- ll23a mRNA Fold Up- or Down-Regulation Test Group/Control Group (Hepa1-6 tumors, vs vehicle): −2.25
- ll23a mRNA X axis (Log2(fold change)) (Hepa1-6 tumors, vs vehicle): −1.17
- ll24 mRNA Fold Change Test Group/Control Group (Hepa1-6 tumors, vs vehicle): 0.43
- ll24 mRNA Fold Up- or Down-Regulation Test Group/Control Group (Hepa1-6 tumors, vs vehicle): −2.34
- ll24 mRNA X axis (Log2(fold change)) (Hepa1-6 tumors, vs vehicle): −1.23
- ll27 mRNA Fold Change Test Group/Control Group (Hepa1-6 tumors, vs vehicle): 0.46
- ll27 mRNA Fold Up- or Down-Regulation Test Group/Control Group (Hepa1-6 tumors, vs vehicle): −2.19
- ll27 mRNA X axis (Log2(fold change)) (Hepa1-6 tumors, vs vehicle): −1.13
- number of mRNAs with decreased expression [1]: 40 mRNAs
- number of mRNAs with increased expression [1]: 5 mRNAs
